From patent US5594024A, “Centrally actig substituted phenylazacycloalkanes” (priority 1995, dated 1997) come the findings set out here.

Like-named read-outs stand apart in the source and are kept apart here.

Assay [1] relates to habituated rats. Nature of the assay: Locomotor activity and behavior in habituated rats. It counts as in vivo, rat (male Sprague-Dawley). To be noted: habituated rats. As for the experimental part:
(§1) Footnotes Table 3. The rats were habituated to the motility meters 60 min
prior to the activity session.
(§2) Injection volumes were 5 mL/kg.
Locomotor activity was measured in rats which were habituated 60 minutes to the activity meters before drug injection. The activity was measured for the subsequent 60 minutes and expressed as % of controls (means ±SEM, n=4).

In assay [2] the test system is DA receptor. Nature of the assay: DA metabolism (DOPAC, HVA levels) in habituated rats. It counts as in vivo, rat (male Sprague-Dawley). Conditions: Rattus norvegicus, 1 h; for response vs control in vivo at 6.2 µmol/kg: 6.2 μmol/kg sc; for response vs control in vivo at 25 µmol/kg: 25 μmol/kg sc. As for the experimental part:
as §1
The rats were immediately killed after the activity session, striata
(§3) and limbic levels of DOPAC and 5HIAA were measured by means of HPLCEC. *p
(§4) In the experiments with habituated rats no NSD was administered and the animals were killed one hour after drug administration. […] The levels were expressed as % of controls (DOPAC and 5-HIAA see Table 3). The in vivo brain microdialysis experiments were performed in conscious rats as described by Waters et al., Eur. J. Pharm., 187, 425-34 (1990).
as §2
After the activity session the rats were killed and the brain levels of HVA and DOPAC were measured (data are expressed as means ±SEM).

Assay [3] concerns 5-HT receptor. The experiment in a line: 5-HTP accumulation (5-HT synthesis rate) in non-pretreated rats after NSD 1015. Type of assay: in vivo, rat (male Sprague-Dawley). The procedure: observations are commented to the right. After the session the rats were
accumulation in the NErich cortical regions and 5HTP in the limbic
as §2

The target of assay [4] is T1, D2 receptors (Rattus norvegicus, UniProt P61169).
T1 construct: Preparation of rat striatal membranes for (3H)-spiperone; from tissue; host or cells: rat striatum (striatal membranes)
Nature of the assay: D2 antagonist binding ([3H]-spiperone), rat striatum. The procedure: D2 antagonist binding. Preparation of rat striatal membranes for (3H)-spiperone (specific activity 21-24 Ci/mmol) binding was carried out in a similar manner as described for D1-binding, Hyttel et al., J. Neural. Transm., 68, 171 (1987).
IC50 values were calculated by semi-log plot and linear regression analysis.

Assay [5] deals with DA receptor. Nature of the assay: DOPA accumulation (DA synthesis rate) in non-pretreated rats after NSD 1015.
Description: injected with NSD 1015 (100 mg/kg, i.p.) and then killed 30 min later.
In-vivo determination of rat brain monoamine metabolites and tyrosine and tryptophan hydroxylation (biochemically monitored DA and 5-HT receptor agonist or antagonist activity).
The compounds under evaluation were tested biochemically for central DA and 5-HT receptor (pre- and/or postsynaptic) stimulating and/or blocking activity. The concept of this biochemical screening method is that a DA or 5-HT receptor agonist will stimulate the receptor and through regulatory negative feed-back systems induce a decline in tyrosine or tryptophan hydroxylating activity, respectively, and a subsequent reduction in the synthesis rate of DA and 5-HT in the presynaptic neuron. […] The biochemical experiments and the determinations of Dopa and 5-HTP by means of HPLC with electrochemical detection were performed. The antagonistic effects were seen as increases in the synthesis rate (n=4), as a result of the positive feed-back upregulation of synthesis. The effects on Dopa and 5-HTP accumulation are expressed as % of controls, which were: DOPA limbic system=447±23 ng/g and DOPA striatum=1045±47ng/g, 5-HTP limbic region 241±2 ng/g (Table 2).
(§5) Animals used in the biochemical and motor activity experiments were male rats of the Sprague-Dawley strain (ALAB, Sollentuna, Sweden), weighing 200-300 g. The rats were kept 5 per cage with free access to water and food (except for the starved animals for the experiments with per oral administration, who were only allowed water the last 18 hours before testing), at least one week from arrival until used in the experiments.
(§6) All substances to be tested were dissolved in saline immediately before use, occasionally with the addition of a few drops of glacial acetic acid and/or moderate heating in order to obtain complete dissolution. Injection volumes were 5 mL/kg.
Analysis of variance (ANOVA) followed by Fischer's test was used for the statistical calculations. P values less than 0.05 were regarded statistically significant.
DOPA accumulation (DA synthesis rate) in non-pretreated rats (Table 2). After the locomotor activity session (see Table 2, above) the rats were injected with the decarboxylase inhibitor NSD 1015 (100 mg/kg, sc) and killed 30 minutes later. The DOPA accumulation in the DA -rich limbic and striatal and the NE-rich cortical (mainly hemispheres) brain areas were expressed as % of saline treated controls.
DOPA accumulation, time course after s.c. and p.o. administration (Table 2). […] NSD 1015 (100 mg/kg, sc) was injected 30 minutes before death. The data are expressed as % of saline treated controls.
Assay [6] concerns non-pretreated rats. Nature of the assay: Locomotor activity and gross behavior in non-habituated (non-pretreated) rats. To be noted: non-pretreated rats; for Motor Act.: 30 min.
Excerpt: Immediately after drug administration, the rats were placed in the test cages (one rat/cage) and put into the motility meters. […] Observations of gross behavior were made throughout the activity sessions through semi-transparent mirrors.
as §5, §6
Analysis of variance (ANOVA) followed by Fischer's test was used for the statistical calculations.
In vivo behavioral data was obtained with rats injected with drug and 5 minutes later put into the motility chambers for the first time. The motor activity was measured for the subsequent 30 minutes (accumulated counts/30 minutes) and expressed as % of saline treated controls.
The subject of assay [7] is 5-HT receptor. Nature of the assay: 5-HT metabolism (5-HIAA levels) in habituated rats. It counts as in vivo, rat (male Sprague-Dawley). The procedure:
as §1
SEM. The rats were immediately killed after the activity session, striata
as §3, §4
Injection volumes were 5 mL/kg. […]

The target of assay [8] is T2, 5-HT1A (Rattus norvegicus, UniProt P19327).
T2 construct: the whole brain with the exception of the brainstem and cerebellum was rapidly removed; from tissue
T2 sequence (P19327 1-422): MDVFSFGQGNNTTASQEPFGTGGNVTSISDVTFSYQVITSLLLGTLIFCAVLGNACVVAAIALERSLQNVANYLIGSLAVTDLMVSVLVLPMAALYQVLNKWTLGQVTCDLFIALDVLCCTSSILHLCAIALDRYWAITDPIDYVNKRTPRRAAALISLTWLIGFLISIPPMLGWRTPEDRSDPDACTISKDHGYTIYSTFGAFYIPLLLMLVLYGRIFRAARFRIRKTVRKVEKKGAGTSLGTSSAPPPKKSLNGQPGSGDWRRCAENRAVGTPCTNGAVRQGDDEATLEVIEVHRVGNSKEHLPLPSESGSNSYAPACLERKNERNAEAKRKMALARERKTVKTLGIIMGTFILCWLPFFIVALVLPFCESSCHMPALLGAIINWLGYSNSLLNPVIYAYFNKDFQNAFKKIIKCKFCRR
Nature of the assay: 5-HT1A radioligand binding ([3H]-8-OH-DPAT). Also noted: species or system rat (male Sprague-Dawley). To be noted: [3H]-8-OH-DPAT, rat cortex; read-out: in vitro binding IC50, 5HT1A. The procedure: ^b Serotonin 5HT1A ([^3 H]-8OH-DPAT, agonist) rat cortex.
5-HT1A radioligand binding. Male Sprague-Dawley rats (160-225 g) were killed by decapitation and the whole brain with the exception of the brainstem and cerebellum was rapidly removed, weighed and chilled in ice-cold 0.9% NaCl. Each brain was homogenized (Ultra-Turrax, 20 s) in 10 mL ice-cold 50 mM Tris buffer (pH 8.0 at 25° C.) containing 120 mM NaCl, 4 mM CaCl2 and 4 mM MgCl2 and centrifuged at 20,000 g's at 4° C. for 10 minutes. Pellets were resuspended in 10 mL fresh buffer and preincubated for 10 minutes in a 37° C. waterbath and then recentrifuged. Final pellets were homogenized in 100 volumes (w/v) of Tris buffer (as described above) containing 10 μM pargyline. The incubation tubes were kept on ice in triplicates and received 100 μL drug solution in water (or water for total binding) and 1000 μL membrane suspension (corresponds to 10 mg original tissue). The binding experiment was initiated by addition of 100 μL of (3H)-8-OH-DPAT (specific activity 143-158 Ci/mmol) in ascorbic acid (the final incubation concentration was 1 nM (3H)-8-OH-DPAT in 0.1% ascorbic acid). After incubation for 15 minutes at 37° C. the reaction was terminated by separation of the free radioligand from bound by rapid vacuum filtration using a cell harvester equipment (O. M. Teknik, Denmark). The tubes were rinsed with 4 mL and the filters (Whatman GF/F 25 mm) were washed twice with 4 mL ice-cold 0.9% NaCl.
The radioactivity of the filters was measured in a liquid scintillation counter (efficiency 41%) in 5 mL Picofluor®. Specific binding (70-75% of total binding) was defined as the radioactivity displaced by 10 μM 5-HT. IC50 values were calculated by semi-log plot and linear regression analysis.

The mark [9] stands for this setting: Rattus norvegicus, 1 h, 100 μmol/kg sc, 60 min, read-out: Motor Activity.
Setting [10] is: 100 μmol/kg sc, habituated rats, read-out: DOPAC limbic.
Where [11] appears, read: 100 μmol/kg sc, habituated rats, read-out: DOPAC striatum.
Where [12] appears, read: [3H]-spiperone, rat striatum, read-out: in vitro binding IC50, D2 -spip.
[13] abbreviates: habituated rats, read-out: DOPAC limbic.
Where [14] appears, read: habituated rats, read-out: DOPAC striatum.

T1 sequence (P61169 whole entry): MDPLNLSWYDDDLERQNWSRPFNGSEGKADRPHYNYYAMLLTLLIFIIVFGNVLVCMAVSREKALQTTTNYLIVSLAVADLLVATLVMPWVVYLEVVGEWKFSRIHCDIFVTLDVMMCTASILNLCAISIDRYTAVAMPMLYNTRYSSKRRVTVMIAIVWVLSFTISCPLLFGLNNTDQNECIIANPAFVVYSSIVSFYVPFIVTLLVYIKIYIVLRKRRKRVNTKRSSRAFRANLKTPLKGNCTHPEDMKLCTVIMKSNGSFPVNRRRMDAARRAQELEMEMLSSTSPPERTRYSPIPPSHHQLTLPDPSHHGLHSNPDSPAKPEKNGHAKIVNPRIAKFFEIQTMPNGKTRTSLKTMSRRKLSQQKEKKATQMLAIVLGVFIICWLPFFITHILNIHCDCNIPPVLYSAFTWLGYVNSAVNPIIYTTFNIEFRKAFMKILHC

For `CCN1CCC[C@@H](c2cccc(OS(=O)(=O)C(F)(F)F)c2)C1` [S-(-)-14, S-(-)-3-((3-(Trifluoromethyl)sulfonyl)oxyphenyl-N-ethyl)-piperidine], in assay [1] (100 μmol/kg sc), the Behavioral observations entry is on record as “Activation”. Further, the response vs control in vivo at 100 µmol/kg in assay [1] (setting [9]) worked out at 404 ± 205%; in assay [2] (setting [10]), 223 ± 39%; in assay [2] (setting [11]), 293 ± 29%. Moreover, the “5-HTP acc Limbic Region” value in assay [3] (100 sc) was 76 ± 9 % of saline controls. Also, the IC50 in assay [4] (setting [12]) is 7.1 µM; in assay [8], 1.3 µM. The “DOPA acc Cortex” value in assay [5] (100 sc) is 80 ± 4 % of saline controls. Also, the “DOPA acc Stratium” value in assay [5] (100 sc) is 286 ± 33 % of saline controls. Also, in assay [6] (100 sc), the “Gross Behavioral Observations” value was “No change”. Further, the “Motor Act.” value in assay [6] (100 sc) is listed as 103 ± 19 % of saline controls. Further, the 5-HIAA limbic in assay [7] (100 μmol/kg sc) is reported as 98 ± 33 % of saline treated controls.

For the compound `CCCN1CCC[C@@H](c2cccc(OS(=O)(=O)C(F)(F)F)c2)C1` [S-(-)-15, S-(-)-3-((3-(Trifluoromethyl)sulfonyl)oxyphenyl-N-n-propyl)-piperidine], the Behavioral observations entry is “No change” in assay [1] (6.2 μmol/kg sc), “No change” in assay [1] (25 μmol/kg sc) and “Activation” in assay [1] (100 μmol/kg sc). Further, the “Motor Activity” value in assay [1] (6.2 μmol/kg sc, 60 min) is given as 91 ± 94 % of saline treated controls. The response vs control in vivo at 25 µmol/kg in assay [1] (Rattus norvegicus, 1 h, 25 μmol/kg sc, 60 min, read-out: Motor Activity) is 128 ± 33%; in assay [2] (setting [13]), 145 ± 11%; in assay [2] (setting [14]) it was 175 ± 8%. Further, the results for the response vs control in vivo at 100 µmol/kg in assay [1] (setting [9]), in assay [2] (setting [10]) and in assay [2] (setting [11]) were 445 ± 131%, 196 ± 16% and 217 ± 3%, respectively. In addition, the results for the response vs control in vivo at 6.2 µmol/kg in assay [2] (setting [13]) and in assay [2] (setting [14]) were 134 ± 10% and 118 ± 10%, respectively. The IC50 worked out at 1.6 µM in assay [4] (setting [12]) and 2.3 µM in assay [8]. Moreover, the 5-HIAA limbic in assay [7] (6.2 μmol/kg sc) is given as 139 ± 9 % of saline treated controls; in assay [7] (25 μmol/kg sc) it was 126 ± 5 % of saline treated controls; in assay [7] (100 μmol/kg sc), 140 ± 11 % of saline treated controls.

As to `CCN1CCC[C@@H](c2cccc(C#N)c2)C1` [S-(-)-33, S-(-)-3-(3-Cyanophenyl-N-ethyl)piperidine], the Behavioral observations result in assay [1] (100 μmol/kg sc) is reported as “Activation”. Moreover, the response vs control in vivo at 100 µmol/kg in assay [1] (setting [9]) stood at 431 ± 80%; in assay [2] (sc, read-out: DOPAC limbic), 153 ± 15%; in assay [2] (sc, read-out: DOPAC striatum) it was 167 ± 8%. Also, the “5-HTP acc Limbic Region” value in assay [3] (25 sc) is 83 ± 3 % of saline controls; in assay [3] (100 sc), 77 ± 3 % of saline controls. Also, the IC50 in assay [4] was 14 µM; in assay [8] it was 22 µM. In addition, the results for the “DOPA acc Cortex” value in assay [5] (25 sc) and in assay [5] (100 sc) were 108 ± 7 % of saline controls and 137 ± 7 % of saline controls, respectively. In addition, the “DOPA acc Stratium” value is listed as 282 ± 11 % of saline controls in assay [5] (25 sc) and 318 ± 19 % of saline controls in assay [5] (100 sc). Also, the “Gross Behavioral Observations” value in assay [6] (25 sc) is “Weak stimul”; in assay [6] (100 sc), “No change”. The figures for the “Motor Act.” value in assay [6] (25 sc) and in assay [6] (100 sc) were 157 ± 7 % of saline controls and 113 ± 7 % of saline controls, respectively.

On to `CCCN1CCC[C@@H](c2cccc(OS(C)(=O)=O)c2)C1` [Compound S-22, S-3-((3-Methylsulfonyl)oxyphenyl-N-n-propyl)piperidine], for which, in assay [1] (100 μmol/kg sc), the Behavioral observations entry is “Activation”. The response vs control in vivo at 100 µmol/kg in assay [1] (setting [9]) is 550 ± 50%; in assay [2] (setting [10]) it was 209 ± 11%; in assay [2] (setting [11]) it was 276 ± 12%. Further, the IC50 in assay [4] (setting [12]) is 25 µM; in assay [8], 1.7 µM. Moreover, in assay [7] (100 μmol/kg sc), the 5-HIAA limbic is 118 ± 11 % of saline treated controls.

Consider `CN1CCC[C@@H](c2cccc(OS(=O)(=O)C(F)(F)F)c2)C1` [S-(+)-13, S-(+)-3-((3-(Trifluoromethyl)sulfonyl)oxyphenyl-N-methyl)-piperidine], for which the Behavioral observations entry in assay [1] (100 μmol/kg sc) is reported as “No change”. Further, the figures for the response vs control in vivo at 100 µmol/kg in assay [1] (setting [9]), in assay [2] (setting [10]) and in assay [2] (setting [11]) were 135 ± 14%, 138 ± 10% and 172 ± 11%, respectively. For the same compound, the IC50 came to 71 µM in assay [4] (setting [12]) and 2.8 µM in assay [8]. Moreover, in assay [7] (100 μmol/kg sc), the 5-HIAA limbic was 109 ± 2 % of saline treated controls.

For `C=Cc1cccc([C@@H]2CCCN(CCC)C2)c1` [Compound S-41, S-3-(3-Vinylphenyl-N-n-propyl)piperidine], in assay [1] (100 μmol/kg sc), the Behavioral observations result is listed as “Activation”. The response vs control in vivo at 100 µmol/kg in assay [1] (setting [9]) came to 529 ± 204%; in assay [2] (sc, read-out: DOPAC limbic), 136 ± 15%; in assay [2] (sc, read-out: DOPAC striatum) it was 134 ± 13%. The IC50 in assay [4] (setting [12]) worked out at 3.5 µM; in assay [8], 0.46 µM. Further, the 5-HIAA limbic in assay [7] (100 μmol/kg sc) is 92 ± 14 % of saline treated controls.

Turning to `C=CCN1CCC[C@@H](c2cccc(OS(=O)(=O)C(F)(F)F)c2)C1` [Compound S-17, S-3-((3-(Trifluoromethyl)sulfonyl)oxyphenyl-N-allyl)piperidine], the Behavioral observations result in assay [1] (100 μmol/kg sc) is listed as “Activation”. In addition, the response vs control in vivo at 100 µmol/kg in assay [1] (setting [9]) came out at 195 ± 13%; in assay [2] (setting [10]), 159 ± 18%; in assay [2] (setting [11]) it was 222 ± 12%. In addition, the results for the IC50 in assay [4] (setting [12]) and in assay [8] were 28 µM and 4.2 µM, respectively. The 5-HIAA limbic in assay [7] (100 μmol/kg sc) is on record as 93 ± 6 % of saline treated controls.
